Test results published in patent publication US20170305861A1, “HETEROARYL COMPOUNDS COMPRISING NITROGEN AND USE THEREOF” (ImmunoMet Therapeutics, Inc, priority 2016, published 2017).
Read-outs that look alike come from different tables or passages of the source.

Tests used:
[1] = system: A549 cell lines (lung cancer cell lines); assay: Oxygen Consumption Rate (OCR) of cells, corrected for cell viability (Cyquant); assay type: cell-based; conditions: Homo sapiens; A549 cells, 24 h drug treatment, OCR value reflecting cell viability; read-out: OCR IC50
Method: The compounds synthesized by the methods disclosed in the Examples of the present invention have been measured on oxygen consumption rate and extracellular oxidation by the methods disclosed in the Test Examples below.
3×10^3 cells from A549 cell lines (purchased from ATCC-American Type Culture Collection), which are lung cancer cell lines, were placed on XF96 cell culture plates using RPMI1640 medium, and cultured at 37° C. in a 5% CO2 condition for 16 hours or more for attachment.
After 16 hours, the cells were treated with the drug at six different concentrations between 0 μM and 20 μM. After 24 hours, the existing medium was removed, and XF assay medium (15 mM D-Glucose, 15 mM sodium pyruvate, 4 mM L-Glutamine, pH 7.4) was added. The cells were retreated with the drug, and additionally cultured in Prep station at 37° C. in a non-CO2 condition for 1 hour. During the one-hour culture in the Prep station, a sensor cartridge was placed and calibrated for 20 minutes, and a plate with cells was placed to analyze the OCR. After the analysis was completed, XF96 plate was measured for cell viability using Cyquant assay, which measures the amount of intracellular DNA, in the following method. XF assay medium and the drug were removed, and the cells were placed in a cryogenic refrigerator (−80° C.) for at least 4 hours to be frozen. After the plate was made to be at room temperature, a solution where a lysis buffer and fluorescent GR dye were mixed was placed by 200 μL per well. After 20-minute reaction at room temperature, […] was measured between […] to calculate cell viability. A measured value of a well untreated with the drug was converted to 100% by reflecting cell viability to the OCR value. Concentration of a drug which inhibits the OCR value reflecting cell viability by 50% was calculated.

SK-MEL-28 cells = assay: Inhibitory effect of cancer cell proliferation, MTT; assay type: cell-based; conditions: Homo sapiens, SK-MEL-28, 72 hours, MTT
Method: The compounds prepared in the above Examples were evaluated for the inhibitory effect of cancer cell proliferation according to the method described in the following Test Example.
SK-MEL-28 cells derived from human melanoma were used, and the concentration (cell growth inhibitory concentration, IC50) at which cell growth was inhibited to 50% was measured using MTT reagent (3-(4,5-dimethylthiazole-2-yl)-2,5-[…] bromide) to confirm the inhibitory effect of cancer cell proliferation of the drugs synthesized in Examples 1 to 84.
First, SK-MEL-28 cells were cultured in 96-well plates at a cell number of about 1,250 in RPMI-1640 medium containing 11.1 mM glucose and 10% calf blood serum or 0.75 mM glucose and 10% calf blood serum, and were cultured for 16 hours. […] After treatment of the compound, MTT was added to the culture medium to confirm living cells and further cultured for 2 hours. The resulting formazane crystal was dissolved using dimethyl sulfoxide, and the absorbance of the solution was measured at 555 nm. After culturing for 72 hours, the number of viable cells in the well plate treated with the compounds synthesized in the Examples relative to the number of cells cultured in the well plate without treatment of the compounds was expressed as cell viability (%) according to each treatment concentration. By using this, a cell viability curve graph was prepared, and the inhibitory effect of cancer cell proliferation was confirmed by calculating the concentration of the compound whose growth was inhibited to 50% (IC50).

[2] = system: RENCA mouse kidney cancer cells; assay: Antitumor effect in mouse kidney cancer cells, subcutaneous RENCA implant in BALB/c mice; assay type: in vivo; conditions: for volume of tumor: 10 mg/kg intraperitoneally once a day, BALB/c mice
Method: RENCA, which are mouse kidney cancer cells, were cultured in RPMI 1640 medium containing 10% FBS and 1% anti-anti at 37° C. and 5% CO2. 8- to 10-week-old BALB/c mice with a body weight range of 18 g to 20 g were subjected to a 7-day acclimation period, and then 1×10^6/0.1 mL of RENCA cells in PBS were subcutaneously implanted on the right side of the backs of the mice. Seven days after implantation, group separation was performed based on the average of tumor volumes when the tumor volumes reached […]. A vehicle control group was intraperitoneally injected with PBS containing 2% DMSO and 2% Tween80, and an Example 62 administration group was intraperitoneally injected at a dose of 10 mg/kg, once a day for 2 weeks. Tumor volume measurements were performed twice weekly using Vemier calipers, and the volume of tumor was calculated by substituting long axis and short axis for 0.5×long axis×short axis^2.

[3] = 0.75 mM glucose, read-out: SK-MEL-28 0.75 mM glucose Cell viability (IC50 μM)
[4] = 11.1 mM glucose, read-out: SK-MEL-28 11.1 mM glucose Cell viability (IC50 μM)

SMILES	IC50 [1] [µM]	IC50 (SK-MEL-28 cells; [3]) [µM]	IC50 (SK-MEL-28 cells; [4]) [µM]	volume of tumor ([2]; day 7 post tumor implantation (group separation)) [mm³]	volume of tumor ([2]; day 9 post tumor implantation) [mm³]	volume of tumor ([2]; day 12 post tumor implantation) [mm³]	volume of tumor ([2]; day 14 post tumor implantation) [mm³]	volume of tumor ([2]; day 16 post tumor implantation) [mm³]	volume of tumor ([2]; day 20 post tumor implantation) [mm³]	tumor growth compared with the vehicle control group ([2]; from the 6th day of administration, 10 mg/kg intraperitoneally once a day for 2 weeks)
Br.c1cc(C[n+]2ccc(N3CCCC3)cc2)cs1 [Example 62, 4-(Pyrrolidin-1-yl)-1-(thiophen-3-ylmethyl)pyridinium bromide]	1	3.1	40.1	81 ± 7	146 ± 17	227 ± 39	364 ± 68	545 ± 132	775 ± 206	remarkably inhibited tumor growth
Nc1cc(N2CCC2)cc[n+]1Cc1ccsc1 [Example 81]	2.1	4.15	58.4	–	–	–	–	–	–	–
